Experimental data taken from patent US20230085307A1, “PYRIDAZINONE COMPOUND AND HERBICIDE” (NISSAN CHEMICAL CORPORATION, priority 2019, published 2023).

Assays:
wild oat [1] = assay: Test Example 5: herbicidal effect by foliage application, plastic box (Table 20, symbol I); format: in vivo, wild oat (Avena fatua); details: foliage application, 320 g/ha, three weeks after application
Method in brief: (§1)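 Sow seeds spot-wise in sterilized diluvial soil; cover with ~1.5 cm soil. Grow 14 days in greenhouse, 25° C. to 30° C. Spray foliage with emulsion diluted to predetermined amount. Rate effect after 3 weeks.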

southern crabgrass [2] = assay: Test Example 4: herbicidal effect by soil treatment (Table 19, symbol F); format: in vivo, southern crabgrass (Digitaria ciliaris); details: amount of applied herbicide 320 g/ha
Method in brief: (§2)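 Soil-surface application: an emulsion agent diluted with water to the predetermined dose is sprayed uniformly over seeds lying under roughly 1.5 cm of sterilized diluvial soil. Boxes stay in a greenhouse at 25° C. to 30° C. Three weeks later, each species is graded on previously defined criteria.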

barnyard grass [3] = assay: Test Example 3: herbicidal effect by foliage application, Wagner pot (Table 18, symbol H); format: in vivo, barnyard grass (Echinochloa crus-galli); details: amount of applied herbicide 320 g/ha
Method in brief: (§3)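 Plants were sown in alluvial soil held under 0.1–0.5 cm standing water and grown 14 days in a greenhouse at 25–30 °C. An emulsifiable formulation, water-diluted to the set dose, was then sprayed onto the foliage, and effects were scored three weeks later using previously defined criteria.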

barnyard grass [4] = assay: Test Example 5: herbicidal effect by foliage application, plastic box (Table 20, symbol H); format: in vivo, barnyard grass (Echinochloa crus-galli); details: foliage application, 320 g/ha, three weeks after application
Method in brief: as §1

Chinese sprangletop = assay: Test Example 3: herbicidal effect by foliage application, Wagner pot (Table 18, symbol D); format: in vivo, chinese sprangletop (Leptochloa chinensis); details: amount of applied herbicide 320 g/ha
Method in brief: as §3

persian speedwell [5] = assay: Test Example 5: herbicidal effect by foliage application, plastic box (Table 20, symbol R); format: in vivo, Persian speedwell (Veronica persica); details: foliage application, 320 g/ha, three weeks after application
Method in brief: as §1

chickweed [6] = assay: Test Example 4: herbicidal effect by soil treatment (Table 19, symbol P); format: in vivo, common chickweed (Stellaria media); details: amount of applied herbicide 320 g/ha
Method in brief: as §2

Italian ryegrass [7] = assay: Test Example 5: herbicidal effect by foliage application, plastic box (Table 20, symbol K); format: in vivo, Italian ryegrass (Lolium multiflorum); details: foliage application, 320 g/ha, three weeks after application
Method in brief: as §1

oval-leafed pondweed = assay: Test Example 1: herbicidal activity, application before weed generation under submerged conditions (Table 16, symbol C); format: in vivo, oval-leafed pondweed (Monochoria vaginalis); details: amount of applied herbicide 320 g/ha
Method in brief: (§4)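 Submerged Wagner pots (alluvial soil, 4 cm water) sown with weed seeds and planted with 2.5-leaf rice seedlings; emulsifiable concentrate diluted in water applied to water surface on sowing day. Held in greenhouse at 25-30 °C; injury scored 0-5 by herbicidal rate after three weeks.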

green foxtail [8] = assay: Test Example 4: herbicidal effect by soil treatment (Table 19, symbol G); format: in vivo, green foxtail (Setaria viridis); details: amount of applied herbicide 320 g/ha
Method in brief: as §2

blackgrass [9] = assay: Test Example 4: herbicidal effect by soil treatment (Table 19, symbol J); format: in vivo, blackgrass (Alopecurus myosuroides); details: amount of applied herbicide 320 g/ha
Method in brief: as §2

barnyard grass [10] = assay: Test Example 4: herbicidal effect by soil treatment (Table 19, symbol H); format: in vivo, barnyard grass (Echinochloa crus-galli); details: amount of applied herbicide 320 g/ha
Method in brief: as §2

wild oat [11] = assay: Test Example 4: herbicidal effect by soil treatment (Table 19, symbol I); format: in vivo, wild oat (Avena fatua); details: amount of applied herbicide 320 g/ha
Method in brief: as §2

Italian ryegrass [12] = assay: Test Example 4: herbicidal effect by soil treatment (Table 19, symbol K); format: in vivo, Italian ryegrass (Lolium multiflorum); details: amount of applied herbicide 320 g/ha
Method in brief: as §2

Japanese bulrush = assay: Test Example 1: herbicidal activity, application before weed generation under submerged conditions (Table 16, symbol B); format: in vivo, Japanese bulrush (Schoenoplectus juncoides); details: amount of applied herbicide 320 g/ha
Method in brief: as §4

windgrass [13] = assay: Test Example 4: herbicidal effect by soil treatment (Table 19, symbol L); format: in vivo, windgrass (Apera spica-venti); details: amount of applied herbicide 320 g/ha
Method in brief: as §2

late watergrass = assay: Test Example 1: herbicidal activity, application before weed generation under submerged conditions (Table 16, symbol A); format: in vivo, late watergrass (Echinochloa oryzicola); details: amount of applied herbicide 320 g/ha
Method in brief: as §4

false cleavers = assay: Test Example 5: herbicidal effect by foliage application, plastic box (Table 20, symbol Q); format: in vivo, false cleavers (Galium spurium); details: foliage application, 320 g/ha, three weeks after application
Method in brief: as §1

windgrass [14] = assay: Test Example 5: herbicidal effect by foliage application, plastic box (Table 20, symbol L); format: in vivo, windgrass (Apera spica-venti); details: foliage application, 320 g/ha, three weeks after application
Method in brief: as §1

southern crabgrass [15] = assay: Test Example 5: herbicidal effect by foliage application, plastic box (Table 20, symbol F); format: in vivo, southern crabgrass (Digitaria ciliaris); details: foliage application, 320 g/ha, three weeks after application
Method in brief: as §1

rice flat sedge = assay: Test Example 3: herbicidal effect by foliage application, Wagner pot (Table 18, symbol E); format: in vivo, rice flat sedge (Cyperus iria); details: amount of applied herbicide 320 g/ha
Method in brief: as §3

velvetleaf [16] = assay: Test Example 4: herbicidal effect by soil treatment (Table 19, symbol M); format: in vivo, velvetleaf (Abutilon theophrasti); details: amount of applied herbicide 320 g/ha
Method in brief: as §2

redroot pigweed [17] = assay: Test Example 5: herbicidal effect by foliage application, plastic box (Table 20, symbol N); format: in vivo, redroot pigweed (Amaranthus retroflexus); details: foliage application, 320 g/ha, three weeks after application
Method in brief: as §1

velvetleaf [18] = assay: Test Example 5: herbicidal effect by foliage application, plastic box (Table 20, symbol M); format: in vivo, velvetleaf (Abutilon theophrasti); details: foliage application, 320 g/ha, three weeks after application
Method in brief: as §1

lambsquarters [19] = assay: Test Example 5: herbicidal effect by foliage application, plastic box (Table 20, symbol O); format: in vivo, lambsquarters (Chenopodium album); details: foliage application, 320 g/ha, three weeks after application
Method in brief: as §1

green foxtail [20] = assay: Test Example 5: herbicidal effect by foliage application, plastic box (Table 20, symbol G); format: in vivo, green foxtail (Setaria viridis); details: foliage application, 320 g/ha, three weeks after application
Method in brief: as §1

redroot pigweed [21] = assay: Test Example 4: herbicidal effect by soil treatment (Table 19, symbol N); format: in vivo, redroot pigweed (Amaranthus retroflexus); details: amount of applied herbicide 320 g/ha
Method in brief: as §2

lambsquarters [22] = assay: Test Example 4: herbicidal effect by soil treatment (Table 19, symbol O); format: in vivo, lambsquarters (Chenopodium album); details: amount of applied herbicide 320 g/ha
Method in brief: as §2

blackgrass [23] = assay: Test Example 5: herbicidal effect by foliage application, plastic box (Table 20, symbol J); format: in vivo, blackgrass (Alopecurus myosuroides); details: foliage application, 320 g/ha, three weeks after application
Method in brief: as §1

chickweed [24] = assay: Test Example 5: herbicidal effect by foliage application, plastic box (Table 20, symbol P); format: in vivo, common chickweed (Stellaria media); details: foliage application, 320 g/ha, three weeks after application
Method in brief: as §1

persian speedwell [25] = assay: Test Example 4: herbicidal effect by soil treatment (Table 19, symbol R); format: in vivo, Persian speedwell (Veronica persica); details: amount of applied herbicide 320 g/ha
Method in brief: as §2

Compound: Cc1nn(C)c(=O)c(-c2c(-c3ccc(OC(C)C)cc3)sc3cc(F)ccc23)c1O [3-019]
- I: wild oat, herbicidal effect grade (wild oat [1]): 0 (Herbicidal rate of 5% or less (almost no effect))
- herbicidal effect, F: southern crabgrass (southern crabgrass [2]): 0 (Herbicidal rate of 5% or less (almost no effect))
- herbicidal effect on H: barnyard grass (barnyard grass [3]): 3 (Herbicidal rate of 40% or more and less than 70%)
- H: barnyard grass, herbicidal effect grade (barnyard grass [4]): 3 (Herbicidal rate of 40% or more and less than 70%)
- herbicidal effect on D: Chinese sprangletop (Chinese sprangletop): 0 (Herbicidal rate of 5% or less (almost no effect))
- R: persian speedwell, herbicidal effect grade (persian speedwell [5]): 5 (Herbicidal rate of 90% or more (almost completely withered))
- herbicidal effect, P: chickweed (chickweed [6]): 0 (Herbicidal rate of 5% or less (almost no effect))
- K: Italian ryegrass, herbicidal effect grade (Italian ryegrass [7]): 3 (Herbicidal rate of 40% or more and less than 70%)
- Herbicidal effect, C: oval-leafed pondweed (oval-leafed pondweed): 3 (Herbicidal rate of 40% or more and less than 70%)
- herbicidal effect, G: green foxtail (green foxtail [8]): 2 (Herbicidal rate of 20% or more and less than 40%)
- herbicidal effect, J: blackgrass (blackgrass [9]): 0 (Herbicidal rate of 5% or less (almost no effect))
- herbicidal effect, H: barnyard grass (barnyard grass [10]): 0 (Herbicidal rate of 5% or less (almost no effect))
- herbicidal effect, I: wild oat (wild oat [11]): 0 (Herbicidal rate of 5% or less (almost no effect))
- herbicidal effect, K: Italian ryegrass (Italian ryegrass [12]): 0 (Herbicidal rate of 5% or less (almost no effect))
- Herbicidal effect, B: Japanese bulrush (Japanese bulrush): 3 (Herbicidal rate of 40% or more and less than 70%)
- herbicidal effect, L: windgrass (windgrass [13]): 0 (Herbicidal rate of 5% or less (almost no effect))
- Herbicidal effect, A: late watergrass (late watergrass): 3 (Herbicidal rate of 40% or more and less than 70%)
- Q: false cleavers, herbicidal effect grade (false cleavers): 4 (Herbicidal rate of 70% or more and less than 90%)
- L: windgrass, herbicidal effect grade (windgrass [14]): 3 (Herbicidal rate of 40% or more and less than 70%)
- F: southern crabgrass, herbicidal effect grade (southern crabgrass [15]): 0 (Herbicidal rate of 5% or less (almost no effect))
- herbicidal effect on E: rice flat sedge (rice flat sedge): 3 (Herbicidal rate of 40% or more and less than 70%)
- herbicidal effect, M: velvetleaf (velvetleaf [16]): 0 (Herbicidal rate of 5% or less (almost no effect))
- N: redroot pigweed, herbicidal effect grade (redroot pigweed [17]): 5 (Herbicidal rate of 90% or more (almost completely withered))
- M: velvetleaf, herbicidal effect grade (velvetleaf [18]): 3 (Herbicidal rate of 40% or more and less than 70%)
- O: lambsquarters, herbicidal effect grade (lambsquarters [19]): 0 (Herbicidal rate of 5% or less (almost no effect))
- G: green foxtail, herbicidal effect grade (green foxtail [20]): 4 (Herbicidal rate of 70% or more and less than 90%)
- herbicidal effect, N: redroot pigweed (redroot pigweed [21]): 3 (Herbicidal rate of 40% or more and less than 70%)
- herbicidal effect, O: lambsquarters (lambsquarters [22]): 3 (Herbicidal rate of 40% or more and less than 70%)
- J: blackgrass, herbicidal effect grade (blackgrass [23]): 3 (Herbicidal rate of 40% or more and less than 70%)
- P: chickweed, herbicidal effect grade (chickweed [24]): 5 (Herbicidal rate of 90% or more (almost completely withered))

Compound: CCOc1cc(F)ccc1-c1oc2ccc(C)cc2c1-c1c(O)c(C)nn(C)c1=O [9-011]
- herbicidal effect on wild oat (I) (wild oat [1]): 3 (Herbicidal rate of 40% or more and less than 70%)
- F: southern crabgrass, herbicidal effect grade (southern crabgrass [2]): 2 (Herbicidal rate of 20% or more and less than 40%)
- Herbicidal effect on H (barnyard grass), foliage application (barnyard grass [3]): 5 (Herbicidal rate of 90% or more (almost completely withered))
- herbicidal effect on barnyard grass (H) (barnyard grass [4]): 4 (Herbicidal rate of 70% or more and less than 90%)
- Herbicidal effect on D (Chinese sprangletop), foliage application (Chinese sprangletop): 0 (Herbicidal rate of 5% or less (almost no effect))
- herbicidal effect on persian speedwell (R) (persian speedwell [5]): 4 (Herbicidal rate of 70% or more and less than 90%)
- P: chickweed, herbicidal effect grade (chickweed [6]): 1 (Herbicidal rate of 5% or more and less than 20%)
- herbicidal effect on Italian ryegrass (K) (Italian ryegrass [7]): 0 (Herbicidal rate of 5% or less (almost no effect))
- Herbicidal effect, C: oval-leafed pondweed (oval-leafed pondweed): 1 (Herbicidal rate of 5% or more and less than 20%)
- G: green foxtail, herbicidal effect grade (green foxtail [8]): 0 (Herbicidal rate of 5% or less (almost no effect))
- J: blackgrass, herbicidal effect grade (blackgrass [9]): 2 (Herbicidal rate of 20% or more and less than 40%)
- H: barnyard grass, herbicidal effect grade (barnyard grass [10]): 0 (Herbicidal rate of 5% or less (almost no effect))
- I: wild oat, herbicidal effect grade (wild oat [11]): 0 (Herbicidal rate of 5% or less (almost no effect))
- K: Italian ryegrass, herbicidal effect grade (Italian ryegrass [12]): 0 (Herbicidal rate of 5% or less (almost no effect))
- Herbicidal effect, B: Japanese bulrush (Japanese bulrush): 2 (Herbicidal rate of 20% or more and less than 40%)
- L: windgrass, herbicidal effect grade (windgrass [13]): 3 (Herbicidal rate of 40% or more and less than 70%)
- R: persian speedwell, herbicidal effect grade (persian speedwell [25]): 3 (Herbicidal rate of 40% or more and less than 70%)
- Herbicidal effect, A: late watergrass (late watergrass): 3 (Herbicidal rate of 40% or more and less than 70%)
- herbicidal effect on false cleavers (Q) (false cleavers): 4 (Herbicidal rate of 70% or more and less than 90%)
- herbicidal effect on windgrass (L) (windgrass [14]): 1 (Herbicidal rate of 5% or more and less than 20%)
- herbicidal effect on southern crabgrass (F) (southern crabgrass [15]): 2 (Herbicidal rate of 20% or more and less than 40%)
- Herbicidal effect on E (rice flat sedge), foliage application (rice flat sedge): 4 (Herbicidal rate of 70% or more and less than 90%)
- M: velvetleaf, herbicidal effect grade (velvetleaf [16]): 0 (Herbicidal rate of 5% or less (almost no effect))
- herbicidal effect on velvetleaf (M) (velvetleaf [18]): 3 (Herbicidal rate of 40% or more and less than 70%)
- herbicidal effect on lambsquarters (O) (lambsquarters [19]): 4 (Herbicidal rate of 70% or more and less than 90%)
- herbicidal effect on green foxtail (G) (green foxtail [20]): 2 (Herbicidal rate of 20% or more and less than 40%)
- N: redroot pigweed, herbicidal effect grade (redroot pigweed [21]): 3 (Herbicidal rate of 40% or more and less than 70%)
- O: lambsquarters, herbicidal effect grade (lambsquarters [22]): 4 (Herbicidal rate of 70% or more and less than 90%)
- herbicidal effect on blackgrass (J) (blackgrass [23]): 4 (Herbicidal rate of 70% or more and less than 90%)
